From PMC6063448, “Antimicrobial activity of linear lipopeptides derived from BP100 towards plant pathogens” (PLoS ONE, 2018)

What was measured:
Format in all cases: cell-based
[1] = test system: Erwinia amylovora PMV6076; test: MIC, growth inhibition in microtiter plates (TSB); conditions: Ea, 25°C, 48 h, OD 600 nm, lowest concentration with no growth, given as interval of tested concentrations, three replicates, experiment repeated twice
Text: (§1) The following plant pathogenic bacterial strains were used: Erwinia amylovora PMV6076 (Institut National de la Recherche Agronomique, Angers, France), Pseudomonas syringae pv. syringae EPS94 (Institut de Tecnologia Agroalimentària, Universitat de Girona, Spain), Xanthomonas axonopodis pv. vesicatoria 2133–2, Pseudomonas syringae pv. actinidiae Psa3700.1.1, Xanthomonas fragariae Xf349-9A (Instituto Valenciano de Investigaciones Agrarias, Valencia, Spain), and Xanthomonas arboricola pv. pruni CFBP5563 (Collection Française de Bactéries associées aux Plantes, Angers, France). All bacteria except for X. fragariae were stored in Luria Bertani (LB) broth supplemented with glycerol (20%) and maintained at -80°C. For X. fragariae, Medium B [46] was used instead of LB. E. amylovora, X. arboricola pv. pruni, P. syringae pv. syringae and P. syringae pv. actinidiae were scrapped from the agar media after growing for 24 h at 25°C, and X. axonopodis pv. vesicatoria and X. fragariae after growing for 48 h at 25°C. The cell material was suspended in sterile water to obtain a suspension of 10^8 CFU mL^-1.
(§2) Lyophilized peptides were solubilized in sterile Milli-Q water to a final concentration of 1 mM and filter sterilized through a 0.22-μm pore filter. […] For antibacterial activity 20 μL of each dilution were mixed in a microtiter plate well with 20 μL of the corresponding suspension of the bacterial indicator, 160 μL of Trypticase Soy Broth (TSB) (BioMèrieux, France) to a total volume of 200 μL. For antifungal activity 20 μL of each stock solution were mixed in a microtiter plate well with 80 μL of the corresponding suspension of the fungal pathogen and 100 μL of double concentrated Potato Dextrose Broth (PDB) to a total volume of 200 μL containing 0.003% w/v of chloramphenicol to prevent bacterial contamination.
(§3) Three replicates for each combination of strain, compound and concentration were used. Microbial growth was determined by optical density measurement at 600 nm (Bioscreen C, Labsystem, Helsinki, Finland). For antibacterial activity microplates were incubated at 25°C with 20 s shaking before hourly absorbance measurement for 48 h. For antifungal activity microplates were incubated at 22°C with 1 min shaking before absorbance measurement that were done every two hours during seven days. The experiment was repeated twice. The MIC was taken as the lowest compound concentration with no growth at the end of the experiment.

[2] = test system: Pseudomonas syringae pv. actinidiae Psa3700.1.1; test: MIC, growth inhibition in microtiter plates (TSB); conditions: Psa, 25°C, 48 h, OD 600 nm, lowest concentration with no growth, given as interval of tested concentrations, three replicates, experiment repeated twice
Text: as §1, §2, §3

[3] = test system: Pseudomonas syringae pv. syringae EPS94; test: MIC, growth inhibition in microtiter plates (TSB); conditions: Pss, 25°C, 48 h, OD 600 nm, lowest concentration with no growth, given as interval of tested concentrations, three replicates, experiment repeated twice
Text: as §1, §2, §3

[4] = test system: Xanthomonas arboricola pv. pruni CFBP5563; test: MIC, growth inhibition in microtiter plates (TSB); conditions: Xap, 25°C, 48 h, OD 600 nm, lowest concentration with no growth, given as interval of tested concentrations, three replicates, experiment repeated twice
Text: as §1, §2, §3

[5] = test system: Xanthomonas axonopodis pv. vesicatoria 2133–2; test: MIC, growth inhibition in microtiter plates (TSB); conditions: Xav, 25°C, 48 h, OD 600 nm, lowest concentration with no growth, given as interval of tested concentrations, three replicates, experiment repeated twice
Text: as §1, §2, §3

[6] = test system: Xanthomonas fragariae Xf349-9A; test: MIC, growth inhibition in microtiter plates (TSB); conditions: Xf, 25°C, 48 h, OD 600 nm, lowest concentration with no growth, given as interval of tested concentrations, three replicates, experiment repeated twice
Text: as §1, §2, §3

[7] = test system: Fusarium oxysporum f. sp. lycopersici FOL 3 race 2; test: MIC, antifungal growth inhibition in microtiter plates (PDB); conditions: Fo, 22°C, seven days, OD 600 nm, lowest concentration with no growth, given as interval of tested concentrations, three replicates, experiment repeated twice
Experimental: (§4) The following plant pathogenic fungal strains were used: Penicillium expansum EPS26 (Institut de Tecnologia Agroalimentària, Universitat de Girona, Spain) and Fusarium oxysporum f. sp. lycopersici FOL 3 race 2 (ATCC 201829, American Type Culture Collection,Virginia, EEUU). Strains were cultured on potato dextrose agar (PDA) plates (Difco). Conidia from P. expansum and microconidia from F. oxysporum were obtained from 5–7 day-old agar Potato Dextrose (PDA) cultures after growth at 25°C. Inoculum was prepared by scraping spore material from culture surfaces with a cotton swab and resuspending it in distilled water containing 0.5‰ of tween 80. The suspensions were filtered through Miracloth (Merk, Millipore) and the concentration of conidia was determined using a hemacytometer and adjusted to 10^4 conidia mL^-1 for F. oxysporum and to 10^3 conidia mL^-1 for P. expansum.
as §2, §3

[8] = test system: Penicillium expansum EPS26; test: as above; conditions: Pe, 22°C, seven days, OD 600 nm, lowest concentration with no growth, given as interval of tested concentrations, three replicates, experiment repeated twice
Experimental: as §4, §2, §3

Row | Structure (SMILES) | MIC [1] | MIC [2] | MIC [3] | MIC [4] | MIC [5] | MIC [6] | MIC [7] | MIC [8]
1 | CCCCCC(=O)NCCCC[C@H](NC(=O)[C@H](Cc1ccccc1)NC(=O)[C@H](CC(C)C)NC(=O)[C@H](CCCCN)NC(=O)[C@H](CCCCN)NC(C)=O)C(=O)N[C@@H](CCCCN)C(=O)N[C@H](C(=O)N[C@@H](CC(C)C)C(=O)N[C@@H](CCCCN)C(=O)N[C@@H](Cc1ccc(O)cc1)C(=O)N[C@@H](CC(C)C)C(N)=O)[C@@H](C)CC [BP372, Ac-KKLFK(COC5H11)KILKYL-NH2] | 6.2 to 12.5 µM | 6.2 to 12.5 µM | 6.2 to 12.5 µM | 3.1 to 6.2 µM | 6.2 to 12.5 µM | 3.1 to 6.2 µM | 0.8 to 1.6 µM | 6.2 to 12.5 µM
2 | CCCCCC(=O)NCCCC[C@H](NC(=O)[C@H](CCCCN)NC(=O)[C@H](Cc1ccccc1)NC(=O)[C@H](CC(C)C)NC(=O)[C@H](CCCCN)NC(=O)[C@H](CCCCN)NC(C)=O)C(=O)N[C@H](C(=O)N[C@@H](CC(C)C)C(=O)N[C@@H](CCCCN)C(=O)N[C@@H](Cc1ccc(O)cc1)C(=O)N[C@@H](CC(C)C)C(N)=O)[C@@H](C)CC [BP373, Ac-KKLFKK(COC5H11)ILKYL-NH2] | 3.1 to 6.2 µM | 3.1 to 6.2 µM | 6.2 to 12.5 µM | 3.1 to 6.2 µM | 6.2 to 12.5 µM | 3.1 to 6.2 µM | 0.4 to 0.8 µM | 3.1 to 6.2 µM
3 | CCCCCC(=O)NCCCC[C@H](NC(=O)[C@@H](NC(=O)[C@H](CCCCN)NC(=O)[C@H](CCCCN)NC(=O)[C@H](Cc1ccccc1)NC(=O)[C@H](CC(C)C)NC(=O)[C@H](CCCCN)NC(=O)[C@H](CCCCN)NC(C)=O)[C@@H](C)CC)C(=O)N[C@@H](CCCCN)C(=O)N[C@@H](Cc1ccc(O)cc1)C(=O)N[C@@H](CC(C)C)C(N)=O [BP375, Ac-KKLFKKIK(COC5H11)KYL-NH2] | 3.1 to 6.2 µM | 3.1 to 6.2 µM | 3.1 to 6.2 µM | 3.1 to 6.2 µM | 6.2 to 12.5 µM | 3.1 to 6.2 µM | 0.4 to 0.8 µM | 3.1 to 6.2 µM
4 | CCCCCC(=O)NCCCC[C@H](NC(=O)[C@H](CC(C)C)NC(=O)[C@@H](NC(=O)[C@H](CCCCN)NC(=O)[C@H](CCCCN)NC(=O)[C@H](Cc1ccccc1)NC(=O)[C@H](CC(C)C)NC(=O)[C@H](CCCCN)NC(=O)[C@H](CCCCN)NC(C)=O)[C@@H](C)CC)C(=O)N[C@@H](Cc1ccc(O)cc1)C(=O)N[C@@H](CC(C)C)C(N)=O [BP376, Ac-KKLFKKILK(COC5H11)YL-NH2] | 6.2 to 12.5 µM | 3.1 to 6.2 µM | 12.5 to 25 µM | 6.2 to 12.5 µM | 6.2 to 12.5 µM | 3.1 to 6.2 µM | 0.4 to 0.8 µM | 3.1 to 6.2 µM
5 | CCCCCC(=O)NCCCC[C@H](NC(=O)[C@H](CCCCN)NC(=O)[C@H](CC(C)C)NC(=O)[C@@H](NC(=O)[C@H](CCCCN)NC(=O)[C@H](CCCCN)NC(=O)[C@H](Cc1ccccc1)NC(=O)[C@H](CC(C)C)NC(=O)[C@H](CCCCN)NC(=O)[C@H](CCCCN)NC(C)=O)[C@@H](C)CC)C(=O)N[C@@H](CC(C)C)C(N)=O [BP377, Ac-KKLFKKILKK(COC5H11)L-NH2] | 3.1 to 6.2 µM | 3.1 to 6.2 µM | 3.1 to 6.2 µM | 3.1 to 6.2 µM | 6.2 to 12.5 µM | 3.1 to 6.2 µM | 0.8 to 1.6 µM | 3.1 to 6.2 µM
6 | CCCC(=O)N[C@@H](CCCCN)C(=O)N[C@@H](CCCCN)C(=O)N[C@@H](CC(C)C)C(=O)N[C@@H](Cc1ccccc1)C(=O)N[C@@H](CCCCN)C(=O)N[C@@H](CCCCN)C(=O)N[C@H](C(=O)N[C@@H](CC(C)C)C(=O)N[C@@H](CCCCN)C(=O)N[C@@H](Cc1ccc(O)cc1)C(=O)N[C@@H](CC(C)C)C(N)=O)[C@@H](C)CC [BP379, C3H7CO-KKLFKKILKYL-NH2] | 3.1 to 6.2 µM | 3.1 to 6.2 µM | 3.1 to 6.2 µM | 3.1 to 6.2 µM | 3.1 to 6.2 µM | 3.1 to 6.2 µM | 3.1 to 6.2 µM | 6.2 to 12.5 µM
7 | CCCC(=O)NCCCC[C@H](NC(C)=O)C(=O)N[C@@H](CCCCN)C(=O)N[C@@H](CC(C)C)C(=O)N[C@@H](Cc1ccccc1)C(=O)N[C@@H](CCCCN)C(=O)N[C@@H](CCCCN)C(=O)N[C@H](C(=O)N[C@@H](CC(C)C)C(=O)N[C@@H](CCCCN)C(=O)N[C@@H](Cc1ccc(O)cc1)C(=O)N[C@@H](CC(C)C)C(N)=O)[C@@H](C)CC [BP380, Ac-K(COC3H7)KLFKKILKYL-NH2] | 3.1 to 6.2 µM | 6.2 to 12.5 µM | 6.2 to 12.5 µM | 3.1 to 6.2 µM | 3.1 to 6.2 µM | 3.1 to 6.2 µM | 0.8 to 1.6 µM | 3.1 to 6.2 µM
8 | CCCC(=O)NCCCC[C@H](NC(=O)[C@H](CCCCN)NC(=O)[C@H](CCCCN)NC(C)=O)C(=O)N[C@@H](Cc1ccccc1)C(=O)N[C@@H](CCCCN)C(=O)N[C@@H](CCCCN)C(=O)N[C@H](C(=O)N[C@@H](CC(C)C)C(=O)N[C@@H](CCCCN)C(=O)N[C@@H](Cc1ccc(O)cc1)C(=O)N[C@@H](CC(C)C)C(N)=O)[C@@H](C)CC [BP382, Ac-KKK(COC3H7)FKKILKYL-NH2] | 6.2 to 12.5 µM | 6.2 to 12.5 µM | 6.2 to 12.5 µM | 6.2 to 12.5 µM | 6.2 to 12.5 µM | 1.6 to 3.1 µM | 0.8 to 1.6 µM | 3.1 to 6.2 µM
9 | CCCC(=O)NCCCC[C@H](NC(=O)[C@H](CC(C)C)NC(=O)[C@H](CCCCN)NC(=O)[C@H](CCCCN)NC(C)=O)C(=O)N[C@@H](CCCCN)C(=O)N[C@@H](CCCCN)C(=O)N[C@H](C(=O)N[C@@H](CC(C)C)C(=O)N[C@@H](CCCCN)C(=O)N[C@@H](Cc1ccc(O)cc1)C(=O)N[C@@H](CC(C)C)C(N)=O)[C@@H](C)CC [BP383, Ac-KKLK(COC3H7)KKILKYL-NH2] | 6.2 to 12.5 µM | 6.2 to 12.5 µM | 6.2 to 12.5 µM | 6.2 to 12.5 µM | 3.1 to 6.2 µM | 3.1 to 6.2 µM | 0.8 to 1.6 µM | 6.2 to 12.5 µM
10 | CCCC(=O)NCCCC[C@H](NC(=O)[C@H](Cc1ccccc1)NC(=O)[C@H](CC(C)C)NC(=O)[C@H](CCCCN)NC(=O)[C@H](CCCCN)NC(C)=O)C(=O)N[C@@H](CCCCN)C(=O)N[C@H](C(=O)N[C@@H](CC(C)C)C(=O)N[C@@H](CCCCN)C(=O)N[C@@H](Cc1ccc(O)cc1)C(=O)N[C@@H](CC(C)C)C(N)=O)[C@@H](C)CC [BP384, Ac-KKLFK(COC3H7)KILKYL-NH2] | 3.1 to 6.2 µM | 6.2 to 12.5 µM | 6.2 to 12.5 µM | 3.1 to 6.2 µM | 1.6 to 3.1 µM | 1.6 to 3.1 µM | 1.6 to 3.1 µM | 12.5 to 25 µM
